Experimental data reported in patent EP4488269A1, “TRIAZOLE COMPOUNDS FOR THE CONTROL OF INVERTEBRATE PESTS” (BASF SE, priority 2023, dated 2025).

How the values were obtained:
Format in all cases: in vivo
[1] = tested on: yellow fever mosquito (Aedes aegypti); assay: whole plant or invertebrate; settings: 48 h, larval mortality, 2 days, read-out: mortality in comparison with untreated controls
Method: B.5 Yellow fever mosquito (Aedes aegypti)
For evaluating control of yellow fever mosquito (Aedes aegypti) the test unit consisted of 96-well-microtiter plates containing 200µl of tap water per well and 5-15 freshly hatched A. aegypti larvae.
The active compounds were formulated using a solution containing 75% (v/v) water and 25% (v/v) DMSO. Different concentrations of formulated compounds or mixtures were sprayed onto the insect diet at 2.5µl, using a custom-built micro atomizer, at two replications.
After application, microtiter plates were incubated at 28 ± 1°C, 80 ± 5 % RH for 2 days. Larval mortality was then visually assessed.

[2] = tested on: tobacco budworm (Heliothis virescens); assay: Tobacco budworm control (insect diet with eggs, 96-well plates); settings: for mortality at 2500 ppm: 120 h, egg and larval mortality, 5 days, read-out: mortality in comparison with untreated controls; for mortality at 25 ppm: test B.2, 25 ppm, comparison with prior art, read-out: % mortality in comparison to untreated controls
Method: B.2 Tobacco budworm (Heliothis virescens)
For evaluating control of tobacco budworm (Heliothis virescens), the test unit consisted of 96-well-microtiter plates containing an insect diet and 15-25 H. virescens eggs.
The compounds were formulated using a solution containing 75% v/v water and 25% v/v DMSO. Different concentrations of formulated compounds were sprayed onto the insect diet at 10µl, using a custom-built micro atomizer, at two replications.
After application, microtiter plates were incubated at about 28 ± 1°C and about 80 ± 5 % relative humidity for 5 days. Egg and larval mortality was then visually assessed.

[3] = tested on: Southern armyworm (Spodoptera eridania), 2nd instar larvae; assay: Southern armyworm foliar spray test on lima bean plants; settings: 96 h, 4 days after treatment, read-out: mortality in comparison with untreated controls
Method: B.4. Southern armyworm (Spodoptera eridania), 2nd instar larvae
The active compounds were formulated by a Tecan liquid handler in 100% cyclohexanone as a 10,000-ppm solution supplied in tubes. The 10,000-ppm solution was serially diluted in 100% cyclohexanone to make interim solutions. These served as stock solutions for which final dilutions were made by the Tecan in 50% acetone:50% water (v/v) into 10 or 20ml glass vials. A non-ionic surfactant (Kinetic®) was included in the solution at a volume of 0.01% (v/v). The vials were then inserted into an automated electrostatic sprayer equipped with an atomizing nozzle for application to plants/insects. Lima bean plants (variety Sieva) were grown 2 plants to a pot and selected for treatment at the 1st true leaf stage. Test solutions were sprayed onto the foliage by an automated electrostatic plant sprayer equipped with an atomizing spray nozzle. The plants were dried in the sprayer fume hood and then removed from the sprayer. Each pot was placed into perforated plastic bags with a zip closure. Ten to 11 armyworm larvae were placed into the bag and the bags zipped closed. Test plants were maintained in a growth room at about 25°C and about 20-40% relative humidity for 4 days, avoiding direct exposure to fluorescent light (14:10 light:dark photoperiod) to prevent trapping of heat inside the bags. Mortality and reduced feeding were assessed 4 days after treatment, compared to untreated control plants.

[4] = tested on: green peach aphid (Myzus persicae); assay: Green peach aphid control through systemic means (artificial diet, 96-well plates); settings: 72 h, adult aphids on treated diet, 3 days, read-out: mortality in comparison with untreated controls
Description: B.1 Green Peach Aphid (Myzus persicae)
For evaluating control of green peach aphid (Myzus persicae) through systemic means, the test unit consisted of 96-well-microtiter plates containing liquid artificial diet under an artificial mem brane.
The compounds were formulated using a solution containing 75% v/v water and 25% v/v DMSO. Different concentrations of formulated compounds were pipetted into the aphid diet, using a custom built pipetter, at two replications.
After application, 5 - 8 adult aphids were placed on the artificial membrane inside the microtiter plate wells. The aphids were then allowed to suck on the treated aphid diet and incubated at about 23 ± 1°C and about 50 ± 5 % relative humidity for 3 days. Aphid mortality and fecundity was then visually assessed.

[5] = tested on: boll weevil (Anthonomus grandis); assay: Boll weevil control (insect diet with eggs, 96-well plates); settings: 120 h, egg and larval mortality, 5 days, read-out: mortality in comparison with untreated controls
Method: B.3 Boll weevil (Anthonomus grandis)
For evaluating control of boll weevil (Anthonomus grandis), the test unit consisted of 96-well-microtiter plates containing an insect diet and 5-10 A. grandis eggs.
The compounds were formulated using a solution containing 75% v/v water and 25% v/v DMSO. Different concentrations of formulated compounds were sprayed onto the insect diet at 5µl, using a custom-built micro atomizer, at two replications.
After application, microtiter plates were incubated at about 25 ± 1°C and about 75 ± 5 % relative humidity for 5 days. Egg and larval mortality was then visually assessed.

Compound | mortality at 2500 ppm [1] | mortality at 2500 ppm [2] | mortality at 300 ppm [3] | mortality at 2500 ppm [4] | mortality at 2500 ppm [5] | mortality at 25 ppm [2]
CC(NC(=O)c1cc(C(F)(F)F)cc(C(F)(F)F)c1)c1nccnc1-c1ncn(-c2cccnc2)n1 (stereo not drawn) [Compound I-1, N-[1-[3-[1-(3-pyridyl)-1,2,4-triazol-3-yl]pyrazin-2-yl]ethyl]-3,5-bis(trifluoromethyl)benzamide] | ≥ 75% | ≥ 75% | ≥ 75% | ≥ 75% | ≥ 75% | –
CC(NC(=O)c1cc(C(F)(F)F)cc(C(F)(F)F)c1)c1nccnc1-c1ncn(C)n1 (stereo not drawn) [WO2023/025617 I1-12, reference compound] | – | – | – | – | – | 31%
CC(NC(=O)c1cc(C(F)(F)F)cc(C(F)(F)F)c1)c1nccnc1-c1ncn(-c2cccnc2[N+](=O)[O-])n1 (stereo not drawn) [Compound I-3, N-[1-[3-[1-(2-nitro-3-pyridyl)-1,2,4-triazol-3-yl]pyrazin-2-yl]ethyl]-3,5-bis(trifluoromethyl)benzamide] | – | ≥ 75% | ≥ 75% | – | ≥ 75% | –
CC(NC(=O)c1cc(C(F)(F)F)cc(C(F)(F)F)c1)c1nccnc1-c1ncn(-c2cccnc2Br)n1 (stereo not drawn) [Compound I-4, N-[1-[3-[1-(2-bromo-3-pyridyl)-1,2,4-triazol-3-yl]pyrazin-2-yl]ethyl]-3,5-bis(trifluoromethyl)benzamide] | ≥ 75% | ≥ 75% | ≥ 75% | ≥ 75% | ≥ 75% | –
CC(NC(=O)c1cc(C(F)(F)F)cc(C(F)(F)F)c1)c1nccnc1-c1ncn(-c2ccccn2)n1 (stereo not drawn) [Compound I-6, N-[1-[3-[1-(2-pyridyl)-1,2,4-triazol-3-yl]pyrazin-2-yl]ethyl]-3,5-bis(trifluoromethyl)benzamide] | ≥ 75% | ≥ 75% | ≥ 75% | ≥ 75% | ≥ 75% | 100%
CC(c1nccnc1-c1ncn(-c2ccccn2)n1)N(C)C(=O)c1cc(C(F)(F)F)cc(C(F)(F)F)c1 (stereo not drawn) [Compound I-17, N-methyl-N-[1-[3-[1-(2-pyridyl)-1,2,4-triazol-3-yl]pyrazin-2-yl]ethyl]-3,5-bis(trifluoromethyl)benzamide] | ≥ 75% | ≥ 75% | ≥ 75% | ≥ 75% | ≥ 75% | –
CC(NC(=O)c1cc(C(F)(F)F)cc(C(F)(F)F)c1)c1nccnc1-c1ncn(-c2cccnc2N)n1 (stereo not drawn) [Compound I-2, N-[1-[3-[1-(2-amino-3-pyridyl)-1,2,4-triazol-3-yl]pyrazin-2-yl]ethyl]-3,5-bis(trifluoromethyl)benzamide] | ≥ 75% | ≥ 75% | ≥ 75% | ≥ 75% | ≥ 75% | –
